Drawing on the Deep4Chem optical property database, this text covers emission maximum for 37 compounds.

A short description of the data set: solvent given as SMILES.

Each structure is given as a SMILES string.

As for `C/C(=N\Nc1ccc(C#N)cc1)c1cccc(/C(C)=N/Nc2ccc(C#N)cc2)c1`, the emission maximum was 492 nm (in CC#N); 467 nm (in CCCCCC); 525 nm (in CO); 504 nm (in CS(C)=O); 476 nm (in ClC(Cl)Cl).
Regarding `Cc1ccc(N(c2ccc(C)cc2)c2ccc(-c3cc4c(cc(-c5ccc(N(c6ccc(C)cc6)c6ccc(C)cc6)cc5)c5nsnc54)c4nsnc34)cc2)cc1`, the emission maximum is given as 659 nm (in Cc1ccccc1) and 683 nm (in ClCCl).
Compound `c1ccc(-n2c3c(c4c2-c2ccccc2C42c4ccccc4-c4ccccc42)C2(c4ccccc4-c4ccccc42)c2ccccc2-3)cc1` showed an emission maximum (in C1CCOC1) of 408 nm.
In turn, `CC1(C)C(/C=C/C2=C(c3ccc(C(=O)O)cc3)C(=C/C=C3/N(CCCS(=O)(=O)[O-])c4ccc5ccccc5c4C3(C)C)/CCC2)=[N+](CCCS(=O)(=O)[O-])c2ccc3ccccc3c21` registered an emission maximum (in CO) of 811 nm.
On to `COc1ccc(O)cc1C=O`, for which the emission maximum is reported as 489 nm (in CO) and 433 nm (in ClC(Cl)Cl).
As to `CC(C)(C)OC(=O)c1c(C=Cc2ccccc2)oc(NC2CCCCC2)c1C(=O)OC(C)(C)C`, the emission maximum (in CC#N) is listed as 462 nm.
For the compound `c1cc2ccc3cccc4c(-c5cc(-c6nccs6)nc(-c6nccs6)c5)cc(c1)c2c34`, the emission maximum (in CC#N) is 458 nm, the emission maximum (in CCCCCC) is recorded as 392 nm, the emission maximum (in CO) is 483 nm and the emission maximum (in ClC(Cl)Cl) is 439 nm.
Turning to `CCCCOc1ccc(-c2oc3cc4n(c3c2-c2ccc(OCCCC)cc2)[B-](F)(F)[N+]2=Cc3cc5oc(-c6ccc(OCCCC)cc6)c(-c6ccc(OCCCC)cc6)c5n3[B-](F)(F)[N+]2=C4)cc1`, the emission maximum runs as follows: (in C1CCOC1) 638 nm; (in CN(C)C=O) 644 nm; (in CS(C)=O) 647 nm; (in Cc1ccccc1) 641 nm; (in ClC(Cl)Cl) 646 nm; (in ClCCl) 646 nm.
`COc1ccc(-c2nc3ccccc3nc2/C=C/N2CCCC2)s1` showed an emission maximum (in CC#N) of 583.94 nm.
As for `CN(C)/C=N\c1ccc2c3c(cccc13)C(=O)c1ccccc1-2`, the emission maximum runs as follows: (in C1CCOC1) 586 nm; (in CCCCCC) 528 nm; (in CCO) 634 nm; (in CCOC(C)=O) 586 nm; (in CN(C)C=O) 624 nm; (in CO) 638 nm. The emission maximum by setting is: (in Cc1ccccc1) 551 nm; (in ClC(Cl)(Cl)Cl) 540 nm; (in ClC(Cl)Cl) 575 nm; (in ClCCl) 593 nm; (in c1ccccc1) 550 nm.
For `Fc1ccccc1-c1c2cc(Cl)ccc2nc2cc3ccccc3cc12`, the emission maximum (in ClCCl) worked out at 526 nm.
Turning to `CCCCCCCCCCCCN1C(=O)c2cccc3c(N(Cc4ccccn4)Cc4ccccn4)c4ccccc4c(c23)C1=O`, the emission maximum by setting is: (in C1CCOC1) 583 nm; (in CCCCCC) 555 nm; (in CCO) 597 nm; (in Cc1ccccc1) 573 nm; (in ClCCl) 587 nm.
Take `CCCCCCN(c1ccccc1)c1ccc2c(c1)C(CC)(CC)c1cc(/C=C/c3ccc(/C=C(\C#N)C(=O)O)s3)ccc1-2`: the emission maximum turned out to be 651 nm (in C1CCOC1); 620 nm (in C1COCCO1); 554 nm (in CC#N); 574 nm (in CC(C)=O); 654 nm (in CCOC(C)=O); 605 nm (in CN(C)C=O). The compound also had an emission maximum (in CS(C)=O) of 627 nm and an emission maximum (in ClCCl) of 594 nm.
On to `CCCCn1c2ccccc2c2ccc(C#Cc3ccc4ccc5cccc6ccc3c4c56)cc21`, for which the emission maximum (in ClCCl) is 411 nm.
In the case of `CN(C)c1ccc(/C=C/C=C/C2=NC3C(=O)NC(N)=NC3N2[C@H]2C[C@H](O)[C@@H](CO)O2)cc1` (stereo partly drawn), the emission maximum is, setting by setting: (in C1COCCO1) 429 nm; (in CC#N) 443 nm; (in CO) 438 nm.
With `CCCCCCCCC1(CCCCCCCC)c2cc(-c3ccc([Si](C)(C)C)cc3)ccc2-c2ccc(-c3ccc([Si](C)(C)C)cc3)cc21`, the emission maximum (in ClC(Cl)Cl) was determined as 368 nm.
As to `CC(C)(C)c1ccc2c(c1)c1cc(C(C)(C)C)ccc1n2-c1ccc(-c2cccs2)s1`, for the setting “in ClCCl”, the emission maximum amounted to 417 nm.
As to `CCN(CC)c1ccc(/C=N/c2cc3nc4ccccc4nc3cc2/N=C/c2ccc(N(CC)CC)cc2O)c(O)c1`, the emission maximum by setting is: (in CC#N) 551 nm; (in CN(C)C=O) 599 nm; (in ClCCl) 568 nm.
In the case of `Nc1cc([NH3+])cc(-c2nc3ccccc3s2)c1`, where the note is “in O”, the emission maximum was 493.5 nm.
Where the note is “in CC#N”, `COC(=O)/C=C/c1sc(-c2ccc(N(C)C)s2)c(-c2cn(C)c3ccccc23)c1O` had an emission maximum of 663 nm.
For `CC(C)(C)c1ccc(C2=c3c(c4ccc(C(C)(C)C)cc4c4cc(C(C)(C)C)ccc34)=[N+]3C2=C(c2ccccc2)c2c(-c4ccc(C(C)(C)C)cc4)c4c5ccc(C(C)(C)C)cc5c5cc(C(C)(C)C)ccc5c4n2[B-]3(F)F)cc1`, the emission maximum by setting is: (in C1CCCCC1) 711 nm; (in C1CCOC1) 712 nm; (in CC#N) 706 nm; (in Cc1ccccc1) 714 nm; (in ClCCl) 712 nm.
Take `Cc1cc(N2c3ccccc3[Si](c3ccccc3)(c3ccccc3)c3ccccc32)c(C)cc1-c1nc(-c2ccccc2)nc(-c2ccccc2)n1`: the emission maximum by setting is: (in Cc1ccccc1) 465 nm; (in O=P(c1ccccc1)(c1ccccc1)c1ccccc1Oc1ccccc1P(=O)(c1ccccc1)c1ccccc1) 465 nm.
Compound `c1cc2oc3cccc4oc5cccc6oc(c1)c2[c+](c34)c65` displayed an emission maximum (in CC#N) of 524 nm.
The compound `CCC1(CC)c2cc(B(c3c(C)cc(C)cc3C)c3c(C)cc(C)cc3C)ccc2-c2c1c1c(c3c2C(CC)(CC)c2cc(N(c4ccccc4)c4ccccc4)ccc2-3)C(CC)(CC)c2cc(B(c3c(C)cc(C)cc3C)c3c(C)cc(C)cc3C)ccc2-1` yielded an emission maximum (in C1CCOC1) of 500 nm; an emission maximum (in CC#N) of 582 nm; an emission maximum (in CC(C)=O) of 550 nm; an emission maximum (in CCCCCC) of 421 nm; an emission maximum (in CCCO) of 501 nm; an emission maximum (in CCO) of 512 nm. For the same compound, the emission maximum by setting is: (in Cc1ccccc1) 444 nm; (in ClC(Cl)Cl) 473 nm.
Under “in ClC(Cl)Cl”, `CC1=CC(C)=[N+]2C1=C(c1ccc(I)cc1)c1c(C)cc(C)n1[B-]2(Oc1ccc(Cl)cc1)Oc1ccc(Cl)cc1` came in with an emission maximum of 519.7 nm.
For `CN(CC(O)c1cccc(O)c1)c1ccc([N+](=O)[O-])c(C2CC(c3cccc4ccccc34)=NN2c2ccccc2)c1` (stereo not drawn), the emission maximum stood at 495 nm (in C1CCCCC1); 467 nm (in C1CCOC1); 454 nm (in C1COCCO1); 526 nm (in CC#N); 511 nm (in CC(C)O); 498 nm (in CCOC(C)=O). This compound also came in with an emission maximum (in CCOCC) of 497 nm; an emission maximum (in CO) of 514 nm; an emission maximum (in Cc1ccccc1) of 497 nm; an emission maximum (in ClC(Cl)Cl) of 451 nm; an emission maximum (in O) of 518 nm.
Take `c1ccc(-c2nc(-c3cccc4ccccc34)n3ccccc23)cc1`: the emission maximum reads like this: (in C1CCCCC1) 478 nm; (in CC#N) 480 nm; (in CO) 475 nm; (in ClCCl) 486 nm; (in O) 475 nm.
Regarding `CCOC(=O)CC[N+]1=c2cc3c(cc2CCC1)=Cc1c(c2ccc(N(C)C)cc2oc1=O)O3`, the emission maximum was 643 nm (in CC#N), 641 nm (in CO), 637 nm (in ClCCl) and 644 nm (in O).
For `F[B-]1(F)n2cccc2C(c2ccc(-c3c4ccccc4c(-c4ccccc4)c4ccccc34)cc2)=C2C=CC=[N+]21`, the emission maximum runs as follows: (in CC#N) 516 nm; (in CCCCCC) 517 nm; (in CCO) 516 nm; (in CN(C)C=O) 520 nm; (in Cc1ccccc1) 524 nm; (in ClCCl) 518 nm.
Consider `c1cc2cccc3c4cccc5cccc(c(c1)c23)c54`, for which the emission maximum runs as follows: (in C1CCCCC1) 438.4 nm; (in ClC(Cl)Cl) 443 nm; (in ClCCl) 448 nm.
`CCCCCCC(CCCCCC)N1C(=O)c2cccc3c(-c4cc(OC)c(OC)c(OC)c4)ccc(c23)C1=O` displayed an emission maximum (in CCCCCC) of 440.2 nm; an emission maximum (in CCCCCCCCCCCCCC) of 442.3 nm; an emission maximum (in CCCCCCCCCCCO) of 526.4 nm; an emission maximum (in CCCCO) of 572 nm; an emission maximum (in CN(C)C=O) of 618.8 nm; an emission maximum (in Cc1ccccc1) of 492.4 nm. The same compound yielded an emission maximum (in ClC(Cl)Cl) of 525.1 nm.
Under “in Cc1ccccc1”, `c1ccc(-c2nc(-c3ccccc3)nc(-c3ccc(N4c5ccccc5C5(c6ccccc64)c4ccccc4C4(c6ccccc6Sc6ccccc64)c4ccccc45)cc3)n2)cc1` had an emission maximum of 468.93 nm.
For the setting “in O”, `O=C(O)CCCCCn1c2ccccc2c(=O)c2cc(S(=O)(=O)O)ccc21` came in with an emission maximum of 428 nm.
With `C(=C\c1ccncn1)/c1ccc(N(c2ccccc2)c2ccccc2)cc1`, the emission maximum amounted to 496 nm (in C1CCOC1); 545 nm (in CC#N); 443 nm (in CCCCCCC); 550 nm (in CS(C)=O); 526 nm (in ClCCl).
The compound `N#Cc1cc(-n2c3ccccc3c3ccccc32)c(C#N)cc1-n1c2ccccc2c2ccccc21` showed an emission maximum (in c1cc(-c2cccc(-n3c4ccccc4c4ccccc43)c2)cc(-n2c3ccccc3c3ccccc32)c1) of 370 nm and an emission maximum (in c1ccc2c(c1)c1ccccc1n2P1(n2c3ccccc3c3ccccc32)=NP(n2c3ccccc3c3ccccc32)(n2c3ccccc3c3ccccc32)=NP(n2c3ccccc3c3ccccc32)(n2c3ccccc3c3ccccc32)=N1) of 370 nm.
Regarding `c1cc(-c2ccc3c(c2)CCCO3)ccc1-c1ccc2c(c1)CCCO2`, under “in C1CCCCC1”, the emission maximum was determined as 351 nm.
`N#Cc1nn(-c2ccccc2Cl)nc1N1CCCC1` gave an emission maximum (in CC#N) of 426 nm.
